# From ChEMBL document CHEMBL5665443, “Enzyme Inhibitor Single Concentration assay results for EUbOPEN Chemogenomics Library” (2024)
# How the values were obtained:
# [1] = target: T1, Adenine DNA glycosylase (Homo sapiens) (UniProt Q9UIF7); details: Compound Concentration 10.0 uM, Hit No;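 also: human MUTYH activity read as 594 nm fluorescence from cleavage and release of a quenched DNA duplex, coupled with APE1 for strand incision, lower signal meaning inhibition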
# T1 sequence (whole entry): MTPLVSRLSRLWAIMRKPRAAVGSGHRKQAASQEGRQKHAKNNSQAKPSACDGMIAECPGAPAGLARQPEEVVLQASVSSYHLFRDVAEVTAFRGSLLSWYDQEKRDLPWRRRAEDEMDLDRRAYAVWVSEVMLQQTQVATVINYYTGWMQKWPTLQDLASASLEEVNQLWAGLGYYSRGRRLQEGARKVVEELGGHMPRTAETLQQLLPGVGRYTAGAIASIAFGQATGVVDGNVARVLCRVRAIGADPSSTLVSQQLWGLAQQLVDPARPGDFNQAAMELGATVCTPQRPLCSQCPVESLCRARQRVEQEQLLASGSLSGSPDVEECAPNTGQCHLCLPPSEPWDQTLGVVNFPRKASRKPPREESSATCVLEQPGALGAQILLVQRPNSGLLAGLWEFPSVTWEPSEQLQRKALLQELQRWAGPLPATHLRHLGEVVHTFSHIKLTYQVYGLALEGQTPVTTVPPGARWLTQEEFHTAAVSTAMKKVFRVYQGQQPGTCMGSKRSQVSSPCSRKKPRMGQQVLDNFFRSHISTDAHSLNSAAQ
# Description: Inhibition of MUTYH by quantifying inhibition of MUTYH-mediated cleavage and dissociation of quenched duplex DNA oligonucleotides, measured as fluorescence at 594 nm. To generate a functional strand incision and increase turn-over this assay is coupled to APE1.
# [2] = target: Endonuclease 8-like 1 (Homo sapiens) (UniProt Q96FI4); details: Hit No;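 also: fluorescence at 594 nm from quenched duplex DNA oligonucleotides released by NEIL1 cleavage and strand separation, reported as reduction of this enzyme activity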
# Endonuclease 8-like 1 (Homo sapiens), sequence (Q96FI4 whole entry): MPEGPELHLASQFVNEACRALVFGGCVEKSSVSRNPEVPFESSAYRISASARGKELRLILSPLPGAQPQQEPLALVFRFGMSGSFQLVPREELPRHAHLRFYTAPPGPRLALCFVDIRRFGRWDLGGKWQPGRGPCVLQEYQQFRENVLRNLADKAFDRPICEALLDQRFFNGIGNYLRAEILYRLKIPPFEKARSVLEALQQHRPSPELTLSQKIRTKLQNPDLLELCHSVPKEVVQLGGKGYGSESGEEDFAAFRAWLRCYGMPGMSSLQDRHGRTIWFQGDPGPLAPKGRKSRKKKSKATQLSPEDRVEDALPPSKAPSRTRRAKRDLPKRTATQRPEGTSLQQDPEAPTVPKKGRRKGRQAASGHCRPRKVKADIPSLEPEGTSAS
# Description: Inhibition of NEIL1 by quantifying inhibition of NEIL1-mediated cleavage and dissociation of quenched duplex DNA oligonucleotides, measured as fluorescence at 594 nm.
# [3] = target: T2, Endonuclease 8-like 2 (Homo sapiens) (UniProt Q969S2); details: Hit No;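 also: fluorescence at 594 nm reports NEIL2 cutting and release of a quenched double-stranded DNA oligo substrate, reduced signal read as inhibition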
# T2 sequence (whole entry): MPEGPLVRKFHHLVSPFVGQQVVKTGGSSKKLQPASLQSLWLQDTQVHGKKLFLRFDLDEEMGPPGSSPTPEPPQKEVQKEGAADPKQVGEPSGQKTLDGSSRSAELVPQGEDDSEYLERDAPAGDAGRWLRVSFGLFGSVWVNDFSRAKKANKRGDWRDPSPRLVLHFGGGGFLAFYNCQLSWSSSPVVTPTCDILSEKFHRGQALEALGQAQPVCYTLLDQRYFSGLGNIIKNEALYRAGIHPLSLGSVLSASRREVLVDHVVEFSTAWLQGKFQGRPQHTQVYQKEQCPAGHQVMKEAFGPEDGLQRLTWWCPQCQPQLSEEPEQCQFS
# Description: Inhibition of NEIL2 by quantifying inhibition of NEIL2-mediated cleavage and dissociation of quenched duplex DNA oligonucleotides, measured as fluorescence at 594 nm.
# [4] = target: N-glycosylase/DNA lyase (Homo sapiens) (UniProt O15527);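 also: OGG1 cleavage of a quenched duplex DNA oligonucleotide, coupled to APE1 for strand incision, read as fluorescence at 594 nm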
# N-glycosylase/DNA lyase (Homo sapiens), sequence (O15527 whole entry): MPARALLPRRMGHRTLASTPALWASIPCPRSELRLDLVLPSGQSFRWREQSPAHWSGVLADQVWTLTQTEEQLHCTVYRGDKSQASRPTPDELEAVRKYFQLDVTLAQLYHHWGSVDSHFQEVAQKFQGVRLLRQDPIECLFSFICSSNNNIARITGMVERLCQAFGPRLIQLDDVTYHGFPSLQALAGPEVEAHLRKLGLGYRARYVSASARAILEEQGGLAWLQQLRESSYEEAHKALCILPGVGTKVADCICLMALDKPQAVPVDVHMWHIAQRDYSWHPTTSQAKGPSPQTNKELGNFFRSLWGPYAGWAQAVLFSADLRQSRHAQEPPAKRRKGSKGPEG
# Description: Inhibition of OGG1 by quantifying inhibition of OGG1-mediated cleavage and dissociation of quenched duplex DNA oligonucleotides, measured as fluorescence at 594 nm. To generate a functional strand incision and increase turn-over this assay is coupled to APE1.
# [5] = target: T3, Single-strand selective monofunctional uracil DNA glycosylase (Homo sapiens) (UniProt Q53HV7); details: Hit No;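 also: enzymatic SMUG1 assay coupled with APE1, reading fluorescence at 594 nm released when a quenched double-stranded DNA oligonucleotide substrate is cleaved and separated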
# T3 sequence (whole entry): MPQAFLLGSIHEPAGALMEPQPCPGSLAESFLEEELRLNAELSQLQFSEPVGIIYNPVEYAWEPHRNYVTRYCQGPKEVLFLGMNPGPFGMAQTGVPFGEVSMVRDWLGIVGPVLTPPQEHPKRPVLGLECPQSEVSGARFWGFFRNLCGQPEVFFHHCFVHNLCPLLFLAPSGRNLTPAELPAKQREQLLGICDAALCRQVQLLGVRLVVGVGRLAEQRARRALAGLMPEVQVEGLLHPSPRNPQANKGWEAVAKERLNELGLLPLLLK
# Description: Inhibition of SMUG1 by quantifying inhibition of SMUG1-mediated cleavage and dissociation of quenched duplex DNA oligonucleotides, measured as fluorescence at 594 nm. To generate a functional strand incision and increase turn-over this assay is coupled to APE1.
# [6] = target: G/T mismatch-specific thymine DNA glycosylase (Homo sapiens) (UniProt Q13569); details: Hit No;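 also: human TDG cleavage of quenched duplex DNA oligonucleotides coupled to APE1, strand release read as fluorescence at 594 nm, inhibition of TDG activity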
# G/T mismatch-specific thymine DNA glycosylase (Homo sapiens), sequence (Q13569 whole entry): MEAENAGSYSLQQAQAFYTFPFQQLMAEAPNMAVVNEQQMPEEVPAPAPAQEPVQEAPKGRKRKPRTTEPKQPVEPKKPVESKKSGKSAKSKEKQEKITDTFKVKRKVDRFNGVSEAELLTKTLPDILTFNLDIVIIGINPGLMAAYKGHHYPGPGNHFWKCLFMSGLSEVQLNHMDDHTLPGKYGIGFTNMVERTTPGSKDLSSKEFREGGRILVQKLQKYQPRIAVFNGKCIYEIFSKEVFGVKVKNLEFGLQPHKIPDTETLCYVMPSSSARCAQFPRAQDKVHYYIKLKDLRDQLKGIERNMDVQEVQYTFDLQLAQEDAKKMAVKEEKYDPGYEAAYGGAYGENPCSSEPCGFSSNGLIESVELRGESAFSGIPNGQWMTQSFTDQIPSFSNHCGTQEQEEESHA
# Description: Inhibition of TDG by quantifying inhibition of TDG-mediated cleavage and dissociation of quenched duplex DNA oligonucleotides, measured as fluorescence at 594 nm. To generate a functional strand incision and increase turn-over this assay is coupled to APE1.
# [7] = target: Uracil-DNA glycosylase (Homo sapiens) (UniProt P13051); details: Hit No;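 also: UNG excision on a quenched double-stranded DNA oligo probe, with APE1 added for strand incision and turnover, read as fluorescence at 594 nm as strands separate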
# Uracil-DNA glycosylase (Homo sapiens), sequence (P13051 whole entry, the tested form may be a part): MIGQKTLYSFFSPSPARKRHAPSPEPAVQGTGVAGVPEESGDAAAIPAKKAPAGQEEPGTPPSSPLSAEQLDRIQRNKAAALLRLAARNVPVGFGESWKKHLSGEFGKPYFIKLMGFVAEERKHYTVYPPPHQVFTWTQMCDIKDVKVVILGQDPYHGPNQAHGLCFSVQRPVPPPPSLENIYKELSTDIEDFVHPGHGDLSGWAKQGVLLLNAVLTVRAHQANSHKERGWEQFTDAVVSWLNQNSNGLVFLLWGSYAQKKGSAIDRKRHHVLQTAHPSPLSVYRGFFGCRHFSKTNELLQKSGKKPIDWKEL
# Description: Inhibition of UNG by quantifying inhibition of UNG-mediated cleavage and dissociation of quenched duplex DNA oligonucleotides, measured as fluorescence at 594 nm. To generate a functional strand incision and increase turn-over this assay is coupled to APE1.
# [8] = target: Methyl-CpG-binding domain protein 4 (Homo sapiens) (UniProt O95243); details: Hit No;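 also: MBD4 activity read as fluorescence at 594 nm from cleavage and release of a quenched duplex DNA oligonucleotide, with APE1 coupled to incise the strand and raise turnover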
# Methyl-CpG-binding domain protein 4 (Homo sapiens), sequence (O95243 whole entry, the tested form may be a part): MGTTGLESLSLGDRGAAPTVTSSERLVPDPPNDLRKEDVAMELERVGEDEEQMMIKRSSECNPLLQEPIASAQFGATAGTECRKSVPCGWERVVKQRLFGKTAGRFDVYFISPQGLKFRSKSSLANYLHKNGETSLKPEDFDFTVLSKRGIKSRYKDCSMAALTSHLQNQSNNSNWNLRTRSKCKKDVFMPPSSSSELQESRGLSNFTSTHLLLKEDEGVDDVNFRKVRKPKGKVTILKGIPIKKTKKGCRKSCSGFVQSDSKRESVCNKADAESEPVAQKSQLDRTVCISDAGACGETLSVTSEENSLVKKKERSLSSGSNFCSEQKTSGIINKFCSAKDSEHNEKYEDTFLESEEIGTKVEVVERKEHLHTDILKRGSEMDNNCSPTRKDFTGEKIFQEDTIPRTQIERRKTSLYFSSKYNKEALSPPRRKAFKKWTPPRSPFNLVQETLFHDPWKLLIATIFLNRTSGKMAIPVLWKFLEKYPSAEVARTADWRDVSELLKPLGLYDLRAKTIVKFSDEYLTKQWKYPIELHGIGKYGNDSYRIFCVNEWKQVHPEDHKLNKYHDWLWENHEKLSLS
# Description: Inhibition of MBD4 by quantifying inhibition of MBD4-mediated cleavage and dissociation of quenched duplex DNA oligonucleotides, measured as fluorescence at 594 nm. To generate a functional strand incision and increase turn-over this assay is coupled to APE1.
# [9] = target: T4, Endonuclease III-like protein 1 (Homo sapiens) (UniProt P78549); details: Hit No;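 also: enzyme assay tracking NTHL1 cutting and release of a quenched double-stranded DNA oligo substrate, read as fluorescence at 594 nm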
# T4 sequence (whole entry): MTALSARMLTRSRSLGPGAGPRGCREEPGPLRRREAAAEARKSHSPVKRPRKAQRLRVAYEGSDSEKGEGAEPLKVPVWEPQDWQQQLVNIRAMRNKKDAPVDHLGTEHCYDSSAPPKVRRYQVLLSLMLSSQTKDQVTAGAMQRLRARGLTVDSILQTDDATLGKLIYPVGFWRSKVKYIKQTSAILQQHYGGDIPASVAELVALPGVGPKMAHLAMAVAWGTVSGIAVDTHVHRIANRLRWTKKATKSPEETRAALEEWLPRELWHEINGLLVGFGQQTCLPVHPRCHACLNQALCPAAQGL
# Description: Inhibition of NTHL1 by quantifying inhibition of NTHL1-mediated cleavage and dissociation of quenched duplex DNA oligonucleotides, measured as fluorescence at 594 nm.
# [10] = Compound Concentration 10.0 uM, Hit No
SMILES,inhibition [1] [%],inhibition ([2]; Compound Concentration 10.0 uM) [%],inhibition ([3]; Compound Concentration 10.0 uM) [%],"inhibition [4, 10] [%]",inhibition ([5]; Compound Concentration 10.0 uM) [%],inhibition ([6]; Compound Concentration 10.0 uM) [%],inhibition ([7]; Compound Concentration 10.0 uM) [%],inhibition ([8]; Compound Concentration 10.0 uM) [%],inhibition ([9]; Compound Concentration 10.0 uM) [%],inhibition ([8]; Compound Concentration 1.0 uM) [%],inhibition ([2]; Compound Concentration 1.0 uM) [%],inhibition ([3]; Compound Concentration 1.0 uM) [%],inhibition ([9]; Compound Concentration 1.0 uM) [%],"inhibition ([4]; Compound Concentration 1.0 uM, Hit No) [%]",inhibition ([5]; Compound Concentration 1.0 uM) [%],inhibition ([6]; Compound Concentration 1.0 uM) [%],inhibition ([7]; Compound Concentration 1.0 uM) [%],"inhibition ([4]; Compound Concentration 10.0 uM, Hit Yes) [%]"
NC[C@H](O)c1ccc(O)c(O)c1,-7.66,2.61,-0.983,-2.34,–,–,–,–,–,–,–,–,–,–,–,–,–,–
COc1cccc([C@@H](C)NCCCc2ccccc2Cl)c1,-7.79,-0.352,–,-9.29,3.94,6.54,–,–,–,–,–,–,–,–,–,–,–,–
CC(C)Oc1ccccc1C(=O)Nc1ccccc1C(=O)Nc1cccc(S(=O)(=O)C(F)(F)F)c1,8.72,-8.8,-0.483,–,–,4.21,-8.11,–,–,–,–,–,–,–,–,–,–,–
CC[C@@H]1CN2C(=O)N(C)c3nc(-c4ccccc4)[nH]c3C2=N1,–,0.982,-3.73,-8.56,-6.04,-6.27,-9.41,-6.99,7.79,–,–,–,–,–,–,–,–,–
COc1ccc(CC[C@@H](OC(=O)[C@H]2CCCCN2C(=O)[C@@H](c2cc(OC)c(OC)c(OC)c2)C2CCCCC2)c2cccc(OCCN3CCOCC3)c2)cc1OC,–,-4.53,4.61,-1.2,19.6,97,9.57,63.9,0.685,–,–,–,–,–,–,–,–,–
COc1cc(-c2cncc(-c3ccc(N4CCN(C(C)C)CC4)cc3)c2C)cc(F)c1C(=O)N1CCCC1,–,3.31,-8.65,12.1,28.7,47.2,7.27,0.55,0.0872,–,–,–,–,–,–,–,–,–
C[C@@H](c1cccc(CN)c1)n1cc(Cl)cc(C(N)=O)c1=N,–,-9.23,0.0213,-2.92,3.56,49.3,-0.0293,72.4,-5.89,–,–,–,–,–,–,–,–,–
Cc1cnc(-c2cc(Cl)ccc2F)cc1-n1c(=O)n(CC(N)=O)c2cnccc21,–,-5.82,-8.34,1.02,13.4,43.1,3.5,27.6,-1.49,–,–,–,–,–,–,–,–,–
C=CC(=O)Nc1ccc2[nH]c(=O)n(C3CCN(Cc4ccc(-c5ccc6c(c5)NC(=O)CO6)cc4)CC3)c2c1,–,2.54,-1.48,15.8,16.7,30.3,1.08,22.1,-2.83,–,–,–,–,–,–,–,–,–
O=S(=O)(NC1CCC(c2cc(F)ccc2F)(S(=O)(=O)c2ccc(Cl)cc2)CC1)C(F)(F)F (configuration not stated),–,–,–,–,–,–,–,–,–,61.8,-7.56,-8.91,-3.92,19.6,19.5,36.8,0.604,–
CN1CCC[C@H]1c1cccnc1,–,4.6,-0.35,-8.49,-4.08,-9.56,-2.67,-6.38,8,–,–,–,–,–,–,–,–,–
CN(C)CC#Cc1ccc(OCCCc2sc(N3CCc4cccc(C(=O)Nc5nc6ccccc6s5)c4C3)nc2C(=O)O)c(F)c1,–,-0.896,-4.83,–,1.49,40.4,1.14,47.6,0.0274,–,–,–,–,–,–,–,–,85.3
COc1cc(O)c(C(CC(=O)N2C[C@H](C)C[C@H](C)C2)c2ccc3c(c2)OCO3)c(OC)c1 (some centres not stated),–,-4.23,-7.38,10.8,8.36,58.3,-0.808,55.4,-3.92,–,–,–,–,–,–,–,–,–
CCCc1c(OCCCOc2ccc(OCC(=O)O)cc2)ccc(C(C)=O)c1O,–,-2.56,10.5,64.5,4.9,63,2.04,63.2,3.31,–,–,–,–,–,–,–,–,–
CC(C)(O)c1cn(-c2ccc(-c3cccc(S(C)(=O)=O)c3)cc2)c(C(C)(C)c2ccccc2Cl)n1,–,-5.44,-6.36,5,17.1,57.4,-9.54,15.3,-2.6,–,–,–,–,–,–,–,–,–
Cc1cccc(CN2CCN(C(c3ccccc3)c3ccc(Cl)cc3)CC2)c1 (configuration not stated),–,5.62,8.7,3.33,10.2,31.2,5.91,55.1,4.63,–,–,–,–,–,–,–,–,–
Cc1c(NC(=O)c2cc(C(N)=O)nc3cc(F)ccc23)c(C(F)(F)F)nn1Cc1ccc(C#N)cc1,–,-9.07,8.19,3.97,19.9,35.6,1.44,51.7,-9.83,–,–,–,–,–,–,–,–,–
Cn1c(C2(NC(=O)c3ccc(NCC4CCCCC4)nc3)CCC2)nc2ccc(/C=C/C(=O)O)cc21,–,2.89,5.38,15,15.9,57.9,7.23,65.1,3.97,–,–,–,–,–,–,–,–,–
C[C@H](NC(=O)Nc1cc2[nH]ncc2c(CO)n1)c1ccccn1,–,-8.95,-4.78,0.354,21.2,51.6,4.22,22.3,-0.801,–,–,–,–,–,–,–,–,–
